Assay results published in patent US11547738B2, “Compositions and methods for treating fibrosis” (Cedars-Sinai Medical Center, priority 2014, dated 2023).
“Also recorded” adds a separate entry of the source.

How the values were obtained:
[1] = system: caerulein-induced CP mice; assay: caerulein-induced chronic pancreatitis (CP) mouse model; type: in vivo; settings: for pancreas fibrosis (relative pancreas weight, H&E, Trichrome, α-SMA, Collagen1A1) / alternative activation of pancreatic macrophages (CD206 expression, flow cytometry): established CP; for pancreas fibrosis (relative pancreas weight, H&E, Trichrome, α-SMA, Collagen1A1): FIG. 6A-6E; for alternative activation of pancreatic macrophages (CD206 expression, flow cytometry): FIG. 6F
Source text: As indicated herein, agents that inhibit IL-4/IL-13 receptor function such as CRSM53567 will have benefit in several fibrosis and cancer diseases. In this design a commonly used model to cause chronic pancreatitis in rodents was created. In this model, the animal is given the cholecystokinin analogue, Caerulein, as a set of 6 intraperitoneal injections over a day repeated 3 times a week for 4 weeks. […] CD206 is a marker of the type II macrophage while MHCII is highly expressed on type I macrophage.
Pancreatitis model and treatment: AP was induced with caerulein injection in mice as previously described (Xue, J., et al. Aryl hydrocarbon receptor regulates pancreatic IL-22 production and protects mice from acute pancreatitis. Gastroenterology 143, 1670-1680 (2012); Xue, J. & Habtezion, A. Carbon monoxide-based therapy ameliorates acute pancreatitis via TLR4 inhibition. J. Clin. Invest. 124, 437-447 (2014)). CP was induced by repetitive caerulein injections (Lerch, M. M. & Gorelick, F. S. Models of acute and chronic pancreatitis. Gastroenterology 144, 1180-1193 (2013); Treiber, M. et al. Myeloid, but not pancreatic, RelA/p65 is required for fibrosis in a mouse model of chronic pancreatitis. Gastroenterology 141, e1471-e1477 (2011)). In brief, mice were given six hourly intraperitoneal (i.p.) injections of 50-μg kg^−1 body weight caerulein (Sigma-Aldrich) 3 days per week, for a total of 4 weeks. Mice were then killed and analyzed 3 days after the last caerulein injection. For blocking peptide study all mice were given caerulein injection 3 days per week for a total of 4 weeks as above, and 2 weeks following start of the caerulein injection mice were either given vehicle control (PBS) or IL-4/IL-13-blocking peptide ([…], 100 μl daily for 5 days per week×2 weeks) until being killed 4 weeks and 3 days later as above.
Histology and immunofluorescence: Mice were killed by CO2 inhalation, and then their pancreata were rapidly removed. Pancreas pieces were immediately fixed in 10% formalin or frozen in Tissue-Tek OCT compound. Fixed tissues were sectioned and used for haemotoxylin and eosin and Trichrome staining (performed in the Histo-Tec Laboratory). Frozen tissues were also sectioned for immunofluorescence staining with indicated antibodies and analyzed with confocal microscopy.
Antibodies and flow cytometry: All antibodies used for flow cytometry were purchased from Biolegend, unless indicated. For surface staining, murine cells were stained with the following antibodies: APC-CD45.2 (109814, 1:200), PE/Cy7-CD4 (100528, 1:300), Percp/Cy5.5-CD11b (101228, 1:200), BV421-F4/80 (123137, 1:200), APC/Cy7-CD11C (117324, 1:200), PE-IL-411.a (144803 1:100), AF488-CD206 (141710, 1:100), AF700-MHCII (107622, 1:300), PB-Ly6C (128014, 1:200), PE/Cy7-Ly-6G (127617, 1:300), PE-FcεRIα (134307, 1:200), AF488-ckit (105815, 1:200), APC-eFluor780-CD45.1 (47-0453-82, eBioscience, 1:200) and PE-Siglec-F (562068, BD Biosciences, 1:200). Human cells were stained with PE/Cy7-CD14 (301814,1:100), AF488-CD206 (321114, 1:50) and APC-CD68 (333810, 1:100). For intracellular cytokine staining, cells were activated with phorbol myristate acetate (50 ng ml^−1) and ionomycin (1 μg ml^−1), in the presence of brefeldin A (10 μg ml^−1, eBioscience) for 4h at 37° C. before staining. The cells were then fixed and permeabilized using the eBioscience kit following the manufacturer's guidelines. APC-IL10 (554468, 1:100) and isotype control (556924, 1:100) from BD Biosciences were used for intracellular staining. For intracellular TNFα staining, cells were incubated with or without lipopolysaccharide (100 ngml-1, InvivoGen) in the presence of brefeldin A before surface-staining. PE-TNFα (554419, 1:200) and isotype control (554685, 1:200) from BD Biosciences were used.
Quantitative RT-PCR: Th pancreas or cells were lysed with Trizol reagent (Invitrogen) for total RNA preparation according to the manufacturer's instructions. […]

[2] = system: mouse IL-4/IL-13-induced M2 polarization; assay: in vitro titration assay of IL-4/IL-13-induced M2 polarization; type: cell-based; settings: at 1 μM
Source text: Antibodies and flow cytometry: All antibodies used for flow cytometry were purchased from Biolegend, unless indicated. For surface staining, murine cells were stained with the following antibodies: APC-CD45.2 (109814, 1:200), PE/Cy7-CD4 (100528, 1:300), Percp/Cy5.5-CD11b (101228, 1:200), BV421-F4/80 (123137, 1:200), APC/Cy7-CD11C (117324, 1:200), PE-IL-411.a (144803 1:100), AF488-CD206 (141710, 1:100), AF700-MHCII (107622, 1:300), PB-Ly6C (128014, 1:200), PE/Cy7-Ly-6G (127617, 1:300), PE-FcεRIα (134307, 1:200), AF488-ckit (105815, 1:200), APC-eFluor780-CD45.1 (47-0453-82, eBioscience, 1:200) and PE-Siglec-F (562068, BD Biosciences, 1:200). Human cells were stained with PE/Cy7-CD14 (301814,1:100), AF488-CD206 (321114, 1:50) and APC-CD68 (333810, 1:100). […]
Cell preparation and in vitro cultures: Pancreatic leukocytes were isolated using collagenase digestion method described previously for flow cytometry analysis (Xue, J., et al. Aryl hydrocarbon receptor regulates pancreatic IL-22 production and protects mice from acute pancreatitis. Gastroenterology 143, 1670-1680 (2012)). […] Isolated PSCs were ready for use after the second passage. […] On day 6, human macrophages are ready for use (Vijayan, D. Isolation and differentiation of monocytes-macrophages from human blood. Methods Mol. Biol. 844, 183-187 (2012)). […]

human macrophages = assay: M2 polarization of human macrophages by hPSC conditioned medium; type: cell-based; settings: hPSC_CM pretreated with 1 μM, 24 h; FIG. 6G
Procedure: IL-4/IL-13-blocking peptide (IL4/13BP i.p., 50 μg per mouse, 5 days per week) was administrated to mice 2 weeks after starting CP induction and mice were killed as previous after 4 weeks of caerulein injections. […] (unpaired two-tailed Student's t-test). […] Scale bar, 200 μm. […] Scale bar: 50 μm. FIG. 6D and FIG. 6E show RT-PCR analysis of α-SMA and Col1α1 (Collagen1A1) gene expression in the pancreas of indicated mice. Means±s.e.m. (unpaired two-tailed Student's t-test). […] Means±s.e.m. (unpaired two-tailed Student's t-test). In FIG. 6G human macrophages as above were cultured with control medium (Con), conditioned medium from hPSCs (hPSC_CM) or hPSC_CM pretreated with 1 μM IL4/13BP (hPSC_CM+BP) for 24h. Expression of CD206 (% CD206^+ macrophages) was analysed using flow cytometry.
Antibodies and flow cytometry: All antibodies used for flow cytometry were purchased from Biolegend, unless indicated. […]
Cell preparation and in vitro cultures: Pancreatic leukocytes were isolated using collagenase digestion method described previously for flow cytometry analysis (Xue, J., et al. Aryl hydrocarbon receptor regulates pancreatic IL-22 production and protects mice from acute pancreatitis. Gastroenterology 143, 1670-1680 (2012)). […] Isolated PSCs were ready for use after the second passage. […]

E0771 tumors = assay: syngeneic E0771 tumor model with radiation therapy; type: in vivo, C57BL/6 mice; settings: for response to radiation therapy (tumor volume): 50 μg in 100 μL PBS daily injection combined with RT 16 Gy, versus RT alone, FIG. 8A
Procedure: Syngeneic E0771 tumors were implanted in the lower mammary gland of C57BL/6 mice and allowed to grow to approximately […]. Mice were then enrolled on study (n=5/group) and treated with either PBS (Control), IL4/13 blocking peptide CSRM53567 (50 μg in 100 μL PBS, daily injection), radiation therapy (RT) alone (16 Gy) or combination of CSRM53567 peptide and RT. Mice were measured at the indicated time points with digital calipers and the resulting volume was calculated. ** p<0.01. […] There were fewer CD4+ T cells and more CD8+ T cells as a percentage of the CD45+ leukocytes in the tumors that received radiation therapy and the IL4/13 blocking peptide compared to radiation alone. […] The cytokines and CD45+ cells were all harvested at end point which is about two weeks post-RT.

[3] = chronic pancreatitis mouse model, preliminary results, FIG. 1
[4] = i.p. 50 μg per mouse, 5 days per week, started 2 weeks after starting CP induction
[5] = i.p. 50 μg per mouse, 5 days per week, started 2 weeks after starting CP induction, listed as IL-4/13-blocking peptide
[6] = RT plus peptide compared to radiation alone, about two weeks post-RT

TYR-CYS-ASP-ASP-PHE-VAL-GLY-SER-PHE-ASP-CYS-TYR (YCDDFVGSFDCY) [CSRM53567]
macrophages in the tissue (FACS) ([1]; chronic pancreatitis mouse model, caerulein 3 times a week for 4 weeks, preliminary results, FIG. 1B): decreases; also recorded: reduces | fibrosis [1, 3]: decreased fibrosis; also recorded: reduces | tissue volume / pancreas shrinkage [1, 3]: increase; also recorded: preventing pancreas shrinkage | pancreas fibrosis (relative pancreas weight, H&E, Trichrome, α-SMA, Collagen1A1) [1, 4]: limited pancreas fibrosis | pancreas fibrosis (relative pancreas weight, H&E, Trichrome, α-SMA, Collagen1A1) [1, 5]: ameliorated | alternative activation of pancreatic macrophages (CD206 expression, flow cytometry) [1, 4]: blockade of alternative activation | alternative activation of pancreatic macrophages (CD206 expression, flow cytometry) [1, 5]: decreased | established CP ([1]; i.p. 50 μg per mouse, 5 days per week, started 2 weeks after starting CP induction, FIG. 6): ameliorates established CP | mouse IL-4/IL-13-induced M2 polarization and CD206 expression [2]: significantly decreased | hPSC-mediated M2 polarization of human macrophages (% CD206+ macrophages) (human macrophages): capable of inhibiting | response to radiation therapy (tumor volume) (E0771 tumors): enhances response to radiation therapy | response to radiation therapy (tumor volume) (E0771 tumors; listed as IL-4/IL-13 blocking peptide): enhances the response to radiation therapy | number of CD8+ T cells post radiation therapy (E0771 tumors; FIG. 8B): enhances the number of CD8+ T cells | CD4+ T cells as a percentage of the CD45+ leukocytes in the tumors (E0771 tumors; [6]): fewer | CD8+ T cells as a percentage of the CD45+ leukocytes in the tumors (E0771 tumors; [6]): more | absolute number of CD45+ leukocytes (E0771 tumors; [6]): remained roughly the same
